The values below come from patent US12448400B2, “KRAS G12D modulating compounds” (priority 2023, dated 2025).

This experiment deals with GP2D (KRAS G12D) cells. Kind of experiment: 2D cell viability assay (CellTiter-Glo). Conditions: 96 h; GP2D cells, 4 days, CellTiter-Glo luminescence; read-out: G12D 2D EC50. The format is cell-based. As for the experimental part:
Example B. 2D Cell Viability Assay
Compounds were tested in a 384-well format for their ability to inhibit the viability of GP2D (KRAS G12D) cells in 2D assays. Compounds were serially diluted (1:3) in DMSO. The LabCyte ECHO Acoustic dispenser system was used to pre-spot assay plates with 200 nL of test molecule per well. 1000 cells/well (40 μL volume per well) in RPMI medium with 10% FBS, and Penicillin-Streptomycin-Glutamine were plated in pre-spotted 384-well plates (Greiner, Catalog #781076) on the BioTEK EL406 liquid dispenser with a 5 μL dispensing cassette (BioTek 7170011). The plates were incubated at 37° C., 5% CO2 for 4 days before addition of CellTiter-Glo (CTG) reagent and measurement of luminescence signal. EC50 values were defined as the compound concentration that causes a 50% decrease in luminescence signal and were calculated using a sigmoidal dose-response model to generate curve fits.
For orientation: Cellular ATP, detected with luciferase, serves as a proxy for viable cell number.

The structures appear in SMILES notation. pEC50: −log10 of the molar value.

The term pEC50 denotes −log10 of the EC50, conventionally taken in molar units. As to `CCc1c(F)ccc2cc(O)cc(-c3c(F)c4c5c(nc(OC[C@@]67CCCN6C[C@H](F)C7)nc5c3F)N3C[C@H]5CC[C@H](N5)[C@H]3CCC4)c12` (atropisomer, axis not shown; (aR)) [Example 77-P, 4-((1S,4R,11R,15aR)-10,12-difluoro-8-(((2R,7aS)-2-fluorotetrahydro-1H-pyrrolizin-7a(5H)-yl)methoxy)-2,3,4,5,13,14,15,15a-octahydro-1H-1,4-epiminoazepino[1′,2′:1,8]azocino[2,3,4-de]quinazolin-11-yl)-5-ethyl-6-fluoronaphthalen-2-ol], the pEC50 is 9.54.

On to `C#Cc1c(F)ccc2cc(O)cc(-c3c(F)c4c5c(nc(OC[C@]6(C)CN(C)CC[C@@H]6C(F)F)nc5c3F)N3C[C@H]5CC[C@@H]([C@H]3CCC4)N5Cc3oc(=O)oc3C)c12` (atropisomer, axis not shown; (aR)) [Example 78, 4-(((1S,4R,15aR)-8-(((3S,4S)-4-(difluoromethyl)-1,3-dimethylpiperidin-3-yl)methoxy)-11-((R)-8-ethynyl-7-fluoro-3-hydroxynaphthalen-1-yl)-10,12-difluoro-2,3,4,5,13,14,15,15a-octahydro-1H-1,4-epiminoazepino[1′,2′:1,8]azocino[2,3,4-de]quinazolin-16-yl)methyl)-5-methyl-1,3-dioxol-2-one], for which the pEC50 was 10.10.

On to `Cc1oc(=O)oc1CN1[C@@H]2CC[C@H]1[C@@H]1[C@@H](C)Cc3c(Cl)c(-c4ccc(F)c5sc(N)c(C#N)c45)c(F)c4nc(OC[C@@]56CCCN5C[C@H](F)C6)nc(c34)N1C2` (atropisomer, axis not shown; (aS)) [Example 71, 2-amino-4-((1S,4R,11R,14S,14aS)-12-chloro-10-fluoro-8-(((2R,7aS)-2-fluorotetrahydro-1H-pyrrolizin-7a(5H)-yl)methoxy)-14-methyl-15-((5-methyl-2-oxo-1,3-dioxol-4-yl)methyl)-1,2,3,4,5,13,14,14a-octahydro-1,4-epiminoazepino[1′,2′:1,7]azepino[2,3,4-de]quinazolin-11-yl)-7-fluorobenzo[b]thiophene-3-carbonitrile], for which the pEC50 was 9.39.

`C[C@H]1Cc2c(Cl)c(-c3ccc(F)c4sc(N)c(C#N)c34)c(F)c3nc(OC[C@@]45CCCN4C[C@H](F)C5)nc(c23)N2C[C@H]3CC[C@H](N3)[C@H]12` (atropisomer, axis not shown; (aS)) [Example 71-P, 2-amino-4-((1S,4R,11R,14S,14aS)-12-chloro-10-fluoro-8-(((2R,7aS)-2-fluorotetrahydro-1H-pyrrolizin-7a(5H)-yl)methoxy)-14-methyl-1,2,3,4,5,13,14,14a-octahydro-1,4-epiminoazepino[1′,2′:1,7]azepino[2,3,4-de]quinazolin-11-yl)-7-fluorobenzo[b]thiophene-3-carbonitrile]: the pEC50 is 9.74.

`C#Cc1c(F)ccc2cccc(-c3nc4c5c(nc(OC[C@@]67CCCN6C[C@H](F)C7)nc5c3F)N3C[C@H]5CC[C@@H]([C@H]3CCC4)N5Cc3oc(=O)oc3CCCCC)c12` [Example 20, 4-(((6aR,7S,10R)-2-(8-ethynyl-7-fluoronaphthalen-1-yl)-1-fluoro-13-(((2R,7aS)-2-fluorotetrahydro-1H-pyrrolizin-7a(5H)-yl)methoxy)-5,6,6a,7,8,9,10,11-octahydro-4H-3,11a,12,14,15-pentaaza-7,10-methanocyclohepta[4,5]cycloocta[1,2,3-de]naphthalen-15-yl)methyl)-5-pentyl-1,3-dioxol-2-one]: the negative-log EC50 (pEC50) is 8.30.

Consider `C#Cc1c(F)ccc2cccc(-c3nc4c5c(nc(OC[C@@]67CCCN6C[C@H](F)C7)nc5c3F)N3C[C@H]5CC[C@@H]([C@H]3CCC4)N5Cc3oc(=O)oc3CCCCCC)c12` [Example 21, 4-(((6aR,7S,10R)-2-(8-ethynyl-7-fluoronaphthalen-1-yl)-1-fluoro-13-(((2R,7aS)-2-fluorotetrahydro-1H-pyrrolizin-7a(5H)-yl)methoxy)-5,6,6a,7,8,9,10,11-octahydro-4H-3,11a,12,14,15-pentaaza-7,10-methanocyclohepta[4,5]cycloocta[1,2,3-de]naphthalen-15-yl)methyl)-5-hexyl-1,3-dioxol-2-one], for which the pEC50 was 8.28.

As for `CCCCc1oc(=O)oc1CN1[C@@H]2CC[C@H]1[C@H]1CCCc3nc(-c4cc(O)cc5ccc(F)c(OC(F)(F)F)c45)c(F)c4nc(OC[C@@]56CCCN5C[C@H](F)C6)nc(c34)N1C2` [Example 22, 4-butyl-5-(((6aR,7S,10R)-1-fluoro-2-(7-fluoro-3-hydroxy-8-(trifluoromethoxy)naphthalen-1-yl)-13-(((2R,7aS)-2-fluorotetrahydro-1H-pyrrolizin-7a(5H)-yl)methoxy)-5,6,6a,7,8,9,10,11-octahydro-4H-3,11a,12,14,15-pentaaza-7,10-methanocyclohepta[4,5]cycloocta[1,2,3-de]naphthalen-15-yl)methyl)-1,3-dioxol-2-one], the pEC50 is 9.07.

Take `CCCCCc1oc(=O)oc1CN1[C@@H]2CC[C@H]1[C@H]1CCCc3nc(-c4cc(O)cc5ccc(F)c(OC(F)(F)F)c45)c(F)c4nc(OC[C@@]56CCCN5C[C@H](F)C6)nc(c34)N1C2` [Example 23, 4-(((6aR,7S,10R)-1-fluoro-2-(7-fluoro-3-hydroxy-8-(trifluoromethoxy)naphthalen-1-yl)-13-(((2R,7aS)-2-fluorotetrahydro-1H-pyrrolizin-7a(5H)-yl)methoxy)-5,6,6a,7,8,9,10,11-octahydro-4H-3,11a,12,14,15-pentaaza-7,10-methanocyclohepta[4,5]cycloocta[1,2,3-de]naphthalen-15-yl)methyl)-5-pentyl-1,3-dioxol-2-one]: the pEC50 is 9.04.

In the case of `CCCCCCc1oc(=O)oc1CN1[C@@H]2CC[C@H]1[C@H]1CCCc3nc(-c4cc(O)cc5ccc(F)c(OC(F)(F)F)c45)c(F)c4nc(OC[C@@]56CCCN5C[C@H](F)C6)nc(c34)N1C2` [Example 24, 4-(((6aR,7S,10R)-1-fluoro-2-(7-fluoro-3-hydroxy-8-(trifluoromethoxy)naphthalen-1-yl)-13-(((2R,7aS)-2-fluorotetrahydro-1H-pyrrolizin-7a(5H)-yl)methoxy)-5,6,6a,7,8,9,10,11-octahydro-4H-3,11a,12,14,15-pentaaza-7,10-methanocyclohepta[4,5]cycloocta[1,2,3-de]naphthalen-15-yl)methyl)-5-hexyl-1,3-dioxol-2-one], the pEC50 was 8.96.

In the case of `C#Cc1c(F)ccc2cc(OC(=O)O[C@@H](C)C(C)C)cc(-c3nc4c5c(nc(OC[C@@]67CCCN6C[C@H](F)C7)nc5c3F)N3C[C@H]5CC[C@@H]([C@H]3CCC4)N5Cc3oc(=O)oc3C)c12` [Example 39, 5-ethynyl-6-fluoro-4-((6aR,7S,10R)-1-fluoro-13-(((2R,7aS)-2-fluorotetrahydro-1H-pyrrolizin-7a(5H)-yl)methoxy)-15-((5-methyl-2-oxo-1,3-dioxol-4-yl)methyl)-5,6,6a,7,8,9,10,11-octahydro-4H-3,11a,12,14,15-pentaaza-7,10-methanocyclohepta[4,5]cycloocta[1,2,3-de]naphthalen-2-yl)naphthalen-2-yl ((S)-3-methylbutan-2-yl) carbonate], the pEC50 was 9.59.
